Key:
ST cells = assay type: cell-based, swine
H1N1 = system: H1N1; design: species or system influenza virus A/Puerto Rico/8/1934 (H1N1)

Substance: fluorescein isothiocyanate [FITC]
- fewer labelled virions infecting cells compared with 25 μg/ml FSL-FLRO4 modified H1N1 (ST cells): 9 times
- total fluorescence relative to H1N1 modified with 25 μg/ml FSL-FLRO4 (H1N1): about 9 times

Source: patent US9821080B2 (priority 2011, dated 2017)
